Reference: ChEMBL document CHEMBL1165865, “Design, synthesis and determination of antifungal activity of 5(6)-substituted benzotriazoles” (2010)
Converted amounts (≈) assume the structure as drawn.

Tests used:
Assay type in all cases: functional
Candida albicans = test: Antifungal activity against Candida albicans ATCC 90028 after 24 hrs by macrodilution method; settings: ATCC 90028, 24 h
Nakaseomyces glabratus = test: Antifungal activity against Candida glabrata ATCC 3916 after 24 hrs by macrodilution method; settings: ATCC 3916, 24 h
Pichia kudriavzevii = test: Antifungal activity against Candida krusei ATCC 30068 after 24 hrs by macrodilution method; settings: ATCC 30068, 24 h
Candida parapsilosis = test: Antifungal activity against Candida parapsilosis ATCC 22019 after 24 hrs by macrodilution method; settings: Lodderomyces parapsilosis, ATCC 22019, 24 h
Saccharomyces cerevisiae = test: Antifungal activity against Saccharomyces cerevisiae DSMZ 1333 after 24 hrs by macrodilution method; settings: DSMZ 1333, 24 h
Aspergillus niger = test: Antifungal activity against Aspergillus niger DSMZ 737 after 24 hrs by macrodilution method; settings: DSMZ 737, 24 h

Structure (SMILES)	MIC (Candida albicans) [µg/mL]	MIC (Nakaseomyces glabratus) [µg/mL]	MIC (Pichia kudriavzevii) [µg/mL]	MIC (Candida parapsilosis) [µg/mL]	MIC (Saccharomyces cerevisiae) [µg/mL]	MIC (Aspergillus niger) [µg/mL]
Cc1cc2nn(CC(O)(Cn3cncn3)c3ccc(F)cc3F)nc2cc1C (racemic)	1.6 (≈ 4.16 µM)	25 (≈ 65 µM)	100 (≈ 260 µM)	3.1 (≈ 8.06 µM)	6.2 (≈ 16.1 µM)	25 (≈ 65 µM)
OC(Cn1cncn1)(Cn1nnc2ccc(Cl)cc21)c1ccc(F)cc1F (racemic)	6.2 (≈ 15.9 µM)	> 100	100 (≈ 256 µM)	100 (≈ 256 µM)	100 (≈ 256 µM)	> 100
Cc1cc2nnn(CC(O)(Cn3cncn3)c3ccc(F)cc3F)c2cc1C (racemic)	12.5 (≈ 32.5 µM)	100 (≈ 260 µM)	> 100	50 (≈ 130 µM)	50 (≈ 130 µM)	100 (≈ 260 µM)
C[C@@H]1[C@H](O)[C@@H](C)/C=C/C=C/C=C/C=C/C=C/C=C/C=C/[C@H](O[C@@H]2O[C@H](C)[C@@H](O)[C@H](N)[C@@H]2O)C[C@@H]2O[C@](O)(C[C@@H](O)C[C@@H](O)[C@H](O)CC[C@@H](O)C[C@@H](O)CC(=O)O[C@H]1C)C[C@H](O)[C@H]2C(=O)O [AMPHOTERICIN B]	0.4 (≈ 0.433 µM)	0.4 (≈ 0.433 µM)	0.4 (≈ 0.433 µM)	0.4 (≈ 0.433 µM)	0.4 (≈ 0.433 µM)	0.8 (≈ 0.866 µM)
O=[N+]([O-])c1ccc2nnn(CC(O)(Cn3cncn3)c3ccc(F)cc3F)c2c1 (racemic)	50 (≈ 125 µM)	> 100	> 100	100 (≈ 249 µM)	100 (≈ 249 µM)	100 (≈ 249 µM)
OC(Cn1cncn1)(Cn1nnc2ccc(F)cc21)c1ccc(F)cc1F (racemic)	12.5 (≈ 33.4 µM)	> 100	> 100	25 (≈ 66.8 µM)	6.2 (≈ 16.6 µM)	> 100
Cc1ccc2c(c1)nnn2CC(O)(Cn1cncn1)c1ccc(F)cc1F (racemic)	12.5 (≈ 33.8 µM)	25 (≈ 67.5 µM)	25 (≈ 67.5 µM)	12.5 (≈ 33.8 µM)	6.2 (≈ 16.7 µM)	50 (≈ 135 µM)
OC(Cn1cncn1)(Cn1nnc2cccnc21)c1ccc(F)cc1F (racemic)	6.2 (≈ 17.4 µM)	100 (≈ 280 µM)	100 (≈ 280 µM)	25 (≈ 70 µM)	50 (≈ 140 µM)	100 (≈ 280 µM)
Cc1ccc2nnn(CC(O)(Cn3cncn3)c3ccc(F)cc3F)c2c1 (racemic)	25 (≈ 67.5 µM)	50 (≈ 135 µM)	25 (≈ 67.5 µM)	6.2 (≈ 16.7 µM)	6.2 (≈ 16.7 µM)	12.5 (≈ 33.8 µM)
OC(Cn1cncn1)(Cn1nnc2ccccc21)c1ccc(F)cc1F (racemic)	0.8 (≈ 2.25 µM)	25 (≈ 70.2 µM)	25 (≈ 70.2 µM)	0.8 (≈ 2.25 µM)	1.6 (≈ 4.49 µM)	> 100
OC(Cn1cncn1)(Cn1nnc2cc(Cl)ccc21)c1ccc(F)cc1F (racemic)	6.2 (≈ 15.9 µM)	50 (≈ 128 µM)	> 100	12.5 (≈ 32 µM)	6.2 (≈ 15.9 µM)	25 (≈ 64 µM)
OC(Cn1cncn1)(Cn1cncn1)c1ccc(F)cc1F [FLUCONAZOLE]	0.8 (≈ 2.61 µM)	50 (≈ 163 µM)	50 (≈ 163 µM)	0.8 (≈ 2.61 µM)	0.8 (≈ 2.61 µM)	> 100
OC(Cn1cncn1)(Cn1nnc2cc(F)ccc21)c1ccc(F)cc1F (racemic)	25 (≈ 66.8 µM)	25 (≈ 66.8 µM)	50 (≈ 134 µM)	3.1 (≈ 8.28 µM)	12.5 (≈ 33.4 µM)	100 (≈ 267 µM)
O=[N+]([O-])c1ccc2c(c1)nnn2CC(O)(Cn1cncn1)c1ccc(F)cc1F (racemic)	1.6 (≈ 3.99 µM)	100 (≈ 249 µM)	50 (≈ 125 µM)	6.2 (≈ 15.4 µM)	12.5 (≈ 31.1 µM)	100 (≈ 249 µM)
COc1ccc2c(c1)nnn2CC(O)(Cn1cncn1)c1ccc(F)cc1F (racemic)	12.5 (≈ 32.4 µM)	50 (≈ 129 µM)	50 (≈ 129 µM)	12.5 (≈ 32.4 µM)	25 (≈ 64.7 µM)	100 (≈ 259 µM)
